Results on 10 compounds are retold here after ChEMBL document CHEMBL4602685, “Yanhusanines A-F, Isoquinoline-Derived Alkaloid Enantiomers from Corydalis yanhusuo and Their Biological Activity” (J Nat Prod, 2020).

The species named for one assay is Homo sapiens. The assay can be described thus: Selectivity ratio of IC50 for inhibition of human CE1 […].
For the next assay, the system named is A549. The assay can be described thus: Cytotoxicity against human A549 cells assessed as reduction in cell viability after 24 hrs by MTT assay. The format is functional, cell-based. (Tetrazolium dyes change colour on reduction, which living cells bring about.)
A further assay addresses T1, Liver carboxylesterase 1 (Homo sapiens, UniProt P23141).
T1 sequence (P23141 whole entry): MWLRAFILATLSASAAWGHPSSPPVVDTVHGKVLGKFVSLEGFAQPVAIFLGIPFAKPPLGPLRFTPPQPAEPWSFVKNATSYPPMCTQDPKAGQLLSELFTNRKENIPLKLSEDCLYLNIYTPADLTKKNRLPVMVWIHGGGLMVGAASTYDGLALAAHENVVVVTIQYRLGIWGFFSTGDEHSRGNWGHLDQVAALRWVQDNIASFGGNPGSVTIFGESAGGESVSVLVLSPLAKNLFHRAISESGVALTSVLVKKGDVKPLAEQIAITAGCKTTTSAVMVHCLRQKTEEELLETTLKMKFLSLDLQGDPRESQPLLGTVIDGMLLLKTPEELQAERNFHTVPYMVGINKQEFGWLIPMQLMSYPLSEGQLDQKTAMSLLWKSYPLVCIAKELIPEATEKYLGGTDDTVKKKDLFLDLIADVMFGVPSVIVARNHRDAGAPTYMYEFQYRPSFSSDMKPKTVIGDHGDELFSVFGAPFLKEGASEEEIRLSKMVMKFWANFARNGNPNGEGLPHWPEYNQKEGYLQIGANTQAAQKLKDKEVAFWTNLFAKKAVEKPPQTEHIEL
The assay can be described thus: Inhibition of human CE1 using D-luciferin methyl ester as substrate preincubated for 10 mins followed by substrate addition and measured after 10 mins by luminescence assay.

The next assay relates to A2780. The assay can be described thus: Cytotoxicity against human A2780 cells assessed as reduction in cell viability after 24 hrs by MTT assay. The format is functional, cell-based.
Assay [1] deals with T2, Tyrosine-protein phosphatase non-receptor type 1 (Homo sapiens) (UniProt P18031).
T2 sequence (whole entry): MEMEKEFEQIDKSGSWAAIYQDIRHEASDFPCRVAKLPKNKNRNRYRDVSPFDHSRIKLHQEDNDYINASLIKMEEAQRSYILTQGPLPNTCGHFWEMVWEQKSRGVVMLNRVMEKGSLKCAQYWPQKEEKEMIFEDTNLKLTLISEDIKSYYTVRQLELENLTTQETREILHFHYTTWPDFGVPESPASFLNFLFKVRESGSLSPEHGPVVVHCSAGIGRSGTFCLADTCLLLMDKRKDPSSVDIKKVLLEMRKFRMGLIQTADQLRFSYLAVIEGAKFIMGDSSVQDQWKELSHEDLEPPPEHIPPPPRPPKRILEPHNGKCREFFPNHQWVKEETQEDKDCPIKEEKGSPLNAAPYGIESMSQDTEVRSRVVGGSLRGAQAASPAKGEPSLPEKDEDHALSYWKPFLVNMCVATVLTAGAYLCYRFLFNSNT
The assay can be described thus: Inhibition of recombinant human GST-tagged PTP1B using para-nitrophenyl phosphate as substrate incubated for 10 mins by spectrophotometric method.

Assay [2] concerns Staphylococcus epidermidis. The assay can be described thus: Antimicrobial activity against Staphylococcus epidermidis ATCC 12228 assessed as reduction in microbial growth after 24 hrs by CLSI based broth microdilution method. The format is functional, organism-based. In general terms: Broth dilution looks for growth in wells or tubes with falling amounts of substance.
The subject of another assay is Staphylococcus aureus. The assay can be described thus: Antimicrobial activity against Staphylococcus aureus ATCC 25923 assessed as reduction in microbial growth after 24 hrs by CLSI based broth microdilution method. The format is functional, organism-based.
For the next assay, the system named is HCT-8. The assay can be described thus: Cytotoxicity against human HCT8 cells assessed as reduction in cell viability after 24 hrs by MTT assay. In kind it is functional, cell-based.
Assay [3] concerns Mycolicibacterium smegmatis. The assay can be described thus: Antimicrobial activity against Mycobacterium smegmatis MC2155 […] assessed as reduction in microbial growth after 24 hrs by CLSI based broth microdilution method. The format is functional, organism-based.
For another assay, the system named is Escherichia coli. The assay can be described thus: Antimicrobial activity against Escherichia coli ATCC 25922 assessed as reduction in microbial growth after 24 hrs by CLSI based broth microdilution method. The format is functional, organism-based.
The next assay has as its system Bel-7402. The assay can be described thus: Cytotoxicity against human Bel7402 cells assessed as reduction in cell viability after 24 hrs by MTT assay. The format is functional, cell-based.
In another assay the test system is Peritoneal macrophage. The assay can be described thus: Antiinflammatory activity in C57BL/6J mouse Peritoneal macrophages assessed as reduction in LPS-induced TNFalpha secretion after 24 hrs. In kind it is functional, cell-based.
The test system of the next assay is HepG2. The assay can be described thus: Cytoprotection activity in human HepG2 cells assessed as reduction in acetaminophen-induced cell injury after 48 hrs by MTT assay. In kind it is functional, cell-based.
In a further assay the test system is BGC-823. The assay can be described thus: Cytotoxicity against human BGC823 cells assessed as reduction in cell viability after 24 hrs by MTT assay. The format is functional, cell-based.
For a further assay, the target named is T3, Cocaine esterase (Homo sapiens, UniProt O00748).
T3 sequence (O00748 whole entry): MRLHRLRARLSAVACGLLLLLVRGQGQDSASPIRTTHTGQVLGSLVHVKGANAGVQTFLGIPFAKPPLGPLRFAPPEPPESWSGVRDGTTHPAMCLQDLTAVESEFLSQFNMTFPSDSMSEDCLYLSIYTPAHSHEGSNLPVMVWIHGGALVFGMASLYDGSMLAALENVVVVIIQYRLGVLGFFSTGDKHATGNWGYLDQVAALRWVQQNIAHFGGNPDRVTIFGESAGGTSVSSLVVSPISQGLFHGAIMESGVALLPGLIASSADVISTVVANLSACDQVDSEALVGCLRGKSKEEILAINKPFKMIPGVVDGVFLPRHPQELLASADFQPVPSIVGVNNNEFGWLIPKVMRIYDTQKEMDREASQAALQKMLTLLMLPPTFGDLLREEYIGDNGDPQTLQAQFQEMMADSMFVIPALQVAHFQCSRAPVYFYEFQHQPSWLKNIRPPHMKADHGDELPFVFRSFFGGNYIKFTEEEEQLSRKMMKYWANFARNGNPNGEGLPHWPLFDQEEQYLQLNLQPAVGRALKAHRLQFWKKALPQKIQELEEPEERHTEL
The assay can be described thus: Inhibition of human CE2 using fluorescein diacetate as substrate preincubated for 10 mins followed by substrate addition and measured after 10 mins by luminescence assay.

pIC50: −log10 of the molar value. The source made the active and inactive calls. No cut-off for these calls is given here.

In general, pIC50 refers to −log10 of the IC50, conventionally taken in molar units. Read a high pIC50 as a low IC50. For the compound `COc1cc2c(cc1OC)C([C@@](C)(OC)c1ccc(OC)c(OC)c1O)=NCC2`, in the assay listed under Homo sapiens, the Ratio IC50 is 10.8. Moreover, the result (in the assay with A549; in the assay on A2780; in [2]; in the assay on Staphylococcus aureus; in the assay on HCT-8; in assay [3]) was inactive. Moreover, the outcome in the assay with Escherichia coli, in the assay on Bel-7402, in the assay on Peritoneal macrophage, in the assay on HepG2 and with BGC-823 was inactive. Also, the pIC50 against Liver carboxylesterase 1 was below 4.00; on Cocaine esterase, 5.03. In assay [1], the inhibition result is “inactive”.
With `COc1cc2c(cc1OC)C([C@H](C)c1ccc(OC)c(OC)c1O)=NCC2`, the Ratio IC50 in the assay listed under Homo sapiens worked out at 14.1. The outcome (with A549; with A2780; in assay [2]; with Staphylococcus aureus; with HCT-8; in [3]) was inactive. In addition, the result with Escherichia coli, with Bel-7402, in the assay on Peritoneal macrophage, with HepG2 and with BGC-823 was inactive. Besides, the pIC50 against Liver carboxylesterase 1 is below 4.00; on Cocaine esterase, 5.15. For the same compound, the inhibition entry in assay [1] was “inactive”.
`COc1cc2ccnc([C@@H](C)c3ccc(OC)c(OC)c3O)c2cc1OC`: the result (with A549; in the assay with A2780; in assay [2]; with Staphylococcus aureus; with HCT-8; in assay [3]) was inactive. Also, the outcome in the assay on Escherichia coli, in the assay on Bel-7402, in the assay with Peritoneal macrophage, with HepG2 and with BGC-823 was inactive. In addition, in assay [1], the inhibition entry was “inactive”. Further, at Cocaine esterase, the pIC50 is below 4.00.
With `COc1cc2c(cc1OC)[C@@]1(Oc3c(ccc(OC)c3OC)[C@]1(C)O)N(C=O)CC2`, the result (in the assay on A549; in the assay on A2780; in [2]; with Staphylococcus aureus; in the assay on HCT-8; in assay [3]) was inactive. Besides, the outcome in the assay with Escherichia coli, with Bel-7402, in the assay on Peritoneal macrophage, with HepG2 and in the assay with BGC-823 was inactive. For the same compound, the pIC50 against Liver carboxylesterase 1 was below 4.00. Moreover, the inhibition result in assay [1] was “inactive”.
Turning to `COc1cc2ccnc([C@@]3(C)OC(=O)c4c3ccc(OC)c4OC)c2cc1OC`, the Ratio IC50 in the assay filed under Homo sapiens was determined as 49.3. Also, the outcome (in the assay on A549; with A2780; in assay [2]; in the assay with Staphylococcus aureus; in the assay with HCT-8; in assay [3]) was inactive. For the same compound, the result with Escherichia coli, in the assay on Bel-7402, in the assay with Peritoneal macrophage, in the assay on HepG2 and with BGC-823 was inactive. The pIC50 against Liver carboxylesterase 1 is below 4.00; against Cocaine esterase it was 5.70. Also, the inhibition entry in [1] is “inactive”.
Take `COc1cc2cc[n+]3c(c2cc1OC)[C@](C)(O)c1ccc(OC)c(OC)c1C3`: the Ratio IC50 in the assay listed under Homo sapiens was 7.6. Besides, the outcome (in the assay with A549; in the assay on A2780; in assay [2]; in the assay with Staphylococcus aureus; in the assay on HCT-8; in assay [3]) was inactive. Moreover, the outcome in the assay on Escherichia coli, in the assay on Bel-7402, with Peritoneal macrophage, in the assay with HepG2 and in the assay with BGC-823 was inactive. Further, the pIC50 against Liver carboxylesterase 1 was below 4.00; on Cocaine esterase it was 4.88. Further, the inhibition result in assay [1] is “inactive”.
Take `COc1cc2c(cc1OC)C([C@](C)(OC)c1ccc(OC)c(OC)c1O)=NCC2`: the Ratio IC50 in the assay listed under Homo sapiens came out at 20. The outcome (in the assay on A549; in the assay on A2780; in assay [2]; with Staphylococcus aureus; in the assay on HCT-8; in assay [3]) was inactive. In addition, the outcome in the assay with Escherichia coli, in the assay on Bel-7402, in the assay on Peritoneal macrophage, in the assay with HepG2 and in the assay with BGC-823 was inactive. For the same compound, the values for the pIC50 against Liver carboxylesterase 1 and against Cocaine esterase were below 4.00 and 5.30, respectively. Moreover, the inhibition entry in [1] was “inactive”.
Consider `COc1cc2c(cc1OC)[C@]1(Oc3c(ccc(OC)c3OC)[C@@]1(C)O)N(C=O)CC2`, for which the result (in the assay with A549; in the assay on A2780; in assay [2]; in the assay on Staphylococcus aureus; with HCT-8; in [3]) was inactive. In addition, the result with Escherichia coli, in the assay with Bel-7402, in the assay with Peritoneal macrophage, in the assay on HepG2 and in the assay with BGC-823 was inactive. At Liver carboxylesterase 1, this compound had a pIC50 below 4.00. Moreover, in assay [1], the inhibition entry was “inactive”.
On to `O=[N+]([O-])c1ccc(OP(=O)(O)Oc2ccc([N+](=O)[O-])cc2)cc1`, for which the pIC50 against Liver carboxylesterase 1 is 6.70.
`COc1cc2ccnc([C@H](C)c3ccc(OC)c(OC)c3O)c2cc1OC`: the result (with A549; in the assay with A2780; in assay [2]; in the assay on Staphylococcus aureus; with HCT-8; in assay [3]) was inactive. Besides, the result in the assay on Escherichia coli, with Bel-7402, in the assay with Peritoneal macrophage, with HepG2 and with BGC-823 was inactive. The inhibition entry in [1] was “inactive”. Further, the pIC50 on Cocaine esterase is below 4.00.
